Results reported in ChEMBL document CHEMBL1141914.

Target: T1, Prostaglandin G/H synthase 1 (Ovis aries) (UniProt P05979)
T1 sequence (whole entry): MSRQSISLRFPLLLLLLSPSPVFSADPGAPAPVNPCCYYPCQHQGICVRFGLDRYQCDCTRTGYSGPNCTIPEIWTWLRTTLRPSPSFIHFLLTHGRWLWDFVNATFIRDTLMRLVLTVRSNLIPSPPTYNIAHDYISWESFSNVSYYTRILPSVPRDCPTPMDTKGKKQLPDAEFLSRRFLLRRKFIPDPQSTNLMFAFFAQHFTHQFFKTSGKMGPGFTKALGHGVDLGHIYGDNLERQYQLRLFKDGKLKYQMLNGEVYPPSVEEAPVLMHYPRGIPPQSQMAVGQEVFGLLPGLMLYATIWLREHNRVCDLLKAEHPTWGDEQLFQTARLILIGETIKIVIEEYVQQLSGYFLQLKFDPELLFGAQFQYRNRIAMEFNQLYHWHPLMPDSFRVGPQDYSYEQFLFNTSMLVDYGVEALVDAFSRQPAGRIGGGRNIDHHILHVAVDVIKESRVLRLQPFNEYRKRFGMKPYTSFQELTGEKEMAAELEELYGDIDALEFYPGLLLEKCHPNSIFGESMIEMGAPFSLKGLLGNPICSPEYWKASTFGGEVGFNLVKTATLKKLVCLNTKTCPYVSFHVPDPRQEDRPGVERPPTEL
Test: Percent inhibition against Prostaglandin G/H synthase 1 from ram seminal vesicles at 100 uM

Row | SMILES | inhibition [%]
1 | COc1cc(/C=C/c2cc(/C=C/c3ccc(O)cc3)on2)ccc1O | 47.4
2 | O=C(/C=C/c1ccc(O)cc1)CC(=O)/C=C/c1ccc(O)cc1 | 41.7
3 | COc1cc(/C=C/C(O)=C/C(=O)/C=C/c2ccc(O)cc2)ccc1O | 67.8
4 | Oc1ccc(/C=C/c2cc(/C=C/c3ccc(O)cc3)[nH]n2)cc1 | 44.4

Continued, values first:

Row | inhibition [%] | SMILES
5 | 80.5 | COc1cc(/C=C/C(=O)CC(=O)/C=C/c2ccc(O)c(OC)c2)ccc1O
6 | 73.9 | COc1cc(/C=C/c2cc(/C=C/c3ccc(O)cc3)[nH]n2)ccc1O
7 | 80.8 | COc1cc(/C=C/c2cc(/C=C/c3ccc(O)c(OC)c3)on2)ccc1O
8 | 87 | COc1cc(/C=C/c2cc(/C=C/c3ccc(O)c(OC)c3)[nH]n2)ccc1O
